Experiment [1] relates to E. coli DH10B pBC SK(+) empty. In words: MIC susceptibility testing, empty vector control. As to conditions: Escherichia coli.
The target of experiment [2] is T1, purified PenA1 β-lactamase (Burkholderia multivorans, UniProt A0A0H3KN52).
T1 sequence (A0A0H3KN52 28-302): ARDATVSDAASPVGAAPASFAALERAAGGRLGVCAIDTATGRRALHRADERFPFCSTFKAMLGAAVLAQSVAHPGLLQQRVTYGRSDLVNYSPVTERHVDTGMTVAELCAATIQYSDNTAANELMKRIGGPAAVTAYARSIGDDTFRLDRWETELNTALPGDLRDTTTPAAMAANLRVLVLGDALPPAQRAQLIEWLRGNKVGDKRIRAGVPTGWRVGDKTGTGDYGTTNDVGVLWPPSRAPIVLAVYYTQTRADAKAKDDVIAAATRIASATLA
In words: Acylation rate k2/K. Format: biochemical. As to conditions: acylation rate (kinact/KI or k2/K), nitrocefin 100 μM reporter.

The target of experiment [3] is T1, purified PenA1 β-lactamase. Briefly: Steady-state inhibition kinetics, Ki-app, purified enzyme. The experiment is classed as biochemical. The settings on record: read-out: Km nitrocefin, used for correction of Ki-app.

The record followed here is publication PMC8324038 (ACS infectious diseases, 2021).

Converted amounts (≈) assume the structure as drawn.

With `CCN1CCN(C(=O)N[C@@H](C(=O)N[C@@H]2C(=O)N3[C@@H]2SC(C)(C)[C@@H]3C(=O)O)c2ccccc2)C(=O)C1=O` [Piperacillin], in experiment [1], the minimal inhibitory concentration (MIC) stood at 2 µg/mL (≈ 3.86 µM). In the case of `O=C(O)[C@H]1/C(=C/CO)O[C@@H]2CC(=O)N21` [clavulanic acid], the k2/K in experiment [2] was in the range of 340 to 2e+06 M⁻¹ s⁻¹. On to `Cn1cc[n+](C[C@@]2(C)[C@H](C(=O)[O-])N3C(=O)C[C@H]3S2(=O)=O)n1` [enmetazobactam], for which the k2/K in experiment [2] is listed as 6.3 ± 2.0 × 10^5 M^−1 s^−1.

As for `O=C(Cc1cccs1)N[C@@H]1C(=O)N2C(C(=O)O)=C(/C=C/c3ccc([N+](=O)[O-])cc3[N+](=O)[O-])CS[C@H]12` [nitrocefin], the Km in experiment [3] worked out at 147 µM.

The term MIC denotes the lowest concentration that inhibits growth of the organism. Higher therefore signals a less susceptible organism. One may read the Km as the concentration of substrate that gives half-maximal velocity.
